How the values were obtained:
[1] = Deoxygenation of sulfoxide to sulfide on UV-A exposure in plate well, HPLC; format: physicochemical; details: for Sulfide Concentration 30 Minutes After UV Exposure: Table 3; for Sulfide (MA-4) Concentration: addition of drug pre-UV exposure, n = 4
Method: (§1) MDA-MB-231 breast cancer cells were plated at 10,000 cells/well on three 96 well plates. After 24 hours incubation at 37° C., varying concentrations of MA-3 and MA-4 were added and incubated for 1 hour at 37° C. on only two plates (pre-UV and no UV exposure). One plate with cells were then left at room temperature covered for 30 min (no UV). The second plate (pre-UV) and the third plate (post-UV) were exposed to UV-A in a Luzchem photoreactor with 8 LZC-UVA lamps for 30 min. Varying concentrations of MA-3 and MA-4 were added to post UV exposure plate after irradiation. Plates were then incubated for 24 hours at 37° C. and then a MTS cell viability assay (Promega) was performed. Cell viability assay was run on a Flexstation3 mulitmode plate reader and percent viability was calculated. Statistical analyses were performed using GraphPad Prism program.
The concentrations were determined using HPLC injections on Agilent Technologies 1200 series HPLC—quaternary pump. The experiment was carried out in two trials consisting of duplicate studies.

[2] = tested on: MDA-MB-231 breast cancer cells; assay: MTS cell viability assay with UV-A irradiation; format: cell-based
Method: as §1

For `O=S(=O)(Oc1ccccc1)c1ccc2c(c1)c1cc(-c3ccc(-c4ccccc4)cc3)ccc1[s+]2[O-]` (stereo not shown) [Compound 5a], the “Sulfide Concentration 30 Minutes After UV Exposure” value ([1]; starting concentration 10 μM) was 3.3 ± 1.4 µM.
With `CC(=O)OCc1ccc2c(c1)c1cc(COC(C)=O)ccc1[s+]2[O-]` [MA-3, 5-oxo-2,8-diacetoxymethyldibenzothiophene] the “% cell viability” value ([2]; compound added pre-UV exposure, cells irradiated with UV-A) was “decreases % cell viability”, the “% cell viability” value ([2]; compound added pre-UV exposure, cells irradiated with UV-A, listed as 5-oxo-2,8-diacetoxymethyldibenzothiophene) was “a decrease in % cell viability” and the “Sulfide (MA-4) Concentration” value ([1]; Concentration of MA-3 10 μM) was 9.653 ± 0.170 µM. The “Sulfide (MA-4) Concentration” value ([1]; Concentration of MA-3 100 μM) was 90.02 ± 4.87 µM and the “Sulfide Concentration 30 Minutes After UV Exposure” value ([1]; starting concentration 100 μM) was 90 ± 3 µM.
In the case of `CC(=O)OCc1ccc2sc3ccc(COC(C)=O)cc3c2c1` [MA-4], the “% cell viability” value ([2]; any of the UV-exposure conditions (no UV, pre-UV, post-UV)) is reported as “did not decrease % cell viability”.
